Measurements reported in patent US8476036B2, “Nonluminogenic assay for living cells” (Promega Corporation, priority 2004, dated 2013).
Counter-ions that a name gives are not always drawn. Like-named read-outs stand apart in the source and are kept apart here. Numbered stars: 1 amine (or outer) side, 2 acyl side, 3 side chain; on linkers, the order of the positions; unused ones are H or OH. Square brackets hold non-standard residues; d marks the D form. Peptide text beside a SMILES is read from it. * marks the point of attachment. AFC = O=c1cc(C(F)(F)F)c2ccc(N*)cc2o1; Glutaryl = O=C(CCCC(=O)[*:2])[*:1]; AMC = Cc1cc(=O)oc2cc(N*)ccc12; Suc = O=C(CCC(=O)[*:2])[*:1]

How the values were obtained:
Assay type in all cases: cell-based
[1] = system: HL-60 or Jurkat; test: Protease retention substrate selectivity, untreated viable cells; set-up: key: None denotes no statistical activity above control population.; (+) to (+++++) denotes the range of activity above control population from modest to robust; (+) to (+++++) denotes the range of activity above control population from modest to robust; (+) to (+++++) denotes the range of activity above control population from modest to robust; (+) to (+++++) denotes the range of activity above control population from modest to robust; (+) to (+++++) denotes the range of activity above control population from modest to robust; conditions: substrate cleavage activity above control in untreated viable cells; 15-30 minutes at 37° C.
From the text: (§1) Ala-Ala-Phe-AMC was obtained from Promega. Z-Leu-Leu-Val-Tyr-aminoluciferin (LLVY corresponds to SEQ ID NO:18), Z-Leu-Arg-aminoluciferin, Z-Phe-Arg-aminoluciferin, Ala-Ala-Phe-aminoluciferin, (Ala-Ala-Phe)2-R110, and (Gly-Phe)2-R110 were synthesized by Promega Biosciences. Suc-Ala-Ala-Phe-AMC, H-Phe-AMC, H-Tyr-AMC, Glutyl-Ala-Ala-Phe-AMC (EMF corresponds to SEQ ID NO:32), H-Gly-Phe-AMC, Z-Gly-Ala-Met-AMC, Suc-Leu-Leu-Val-Tyr-AMC (LLVY corresponds to SEQ ID NO:18), D-Ala-Leu-Lys-AMC, H-Gly-Ala-AMC, H-Gly-Gly-AMC, Suc-Ala-Ala-Phe-AMC, Z-Arg-Leu-Arg-Gly-Gly-AMC (RLRGG corresponds to SEQ ID NO:29), Z-Leu-Arg-Gly-Gly-AMC (LRGG corresponds to SEQ ID NO:30) and Ac-Ala-Ala-Tyr-AMC were sourced from Bachem. Gly-Phe-AFC, Pro-Phe-Arg-AMC, Gly-Gly-Leu-AMC, and Ser-Tyr-AFC were obtained from Calbiochem. Z-Phe-Arg-AMC and Suc-Arg-Pro-Phe-His-Leu-Leu-Val-Tyr-AMC (RPHLLVY corresponds to SEQ ID NO:31) were purchased from Sigma.
(§2) All substrates were solubilized in DMSO from 10 to 100 mM depending upon inherent solubility. Fluorescent substrates were diluted to 100 μM to 1 mM in 10 mM Hepes, pH 7.5 or matched cell culture medium with 10% serum and added in 1/10th volumes to lysed (freeze fractured, sonicated, or detergent) or untreated viable cells in white-walled, clear bottomed 96-well plates. HL-60 or Jurkat were used in the experimentation interchangeably because of their easily manipulated suspension phenotype. Plates were incubated for 15-30 minutes at 37° C. prior to measuring fluorescence by the CYTOFLUOR® II.
(§3) Luminescent substrates were added to a luciferin detection cake (Promega V859A) resuspended in 2 ml 10 mM Hepes, pH 7.5 to 500 μM. ⅕^th volume of the proluminescent reaction mixes were added to lysed (freeze fractured, sonicated, or detergent) or untreated viable cells in white-walled, clear bottomed 96-well plates. Again, HL-60 or Jurkat were used in the experimentation interchangeably. Plates were incubated at 37° C. in a MeCour' circulating heat block controlled by a Caron 2050W exchange unit. Luminescence was measured between 15 and 30 minutes (signal steady state).
(§4) A broad variety of proteolytic substrates were examined in an effort to characterize potential substrate preferences for protease release or retention in compromised or viable cells (see Table 4). […] Non-blocked substrates (H- and the like) were examined to include the contribution of aminopeptidase activities. From this panel, at least three proteolytic profiles emerged: an aminopeptidase-like activity preferring unblocked Ala-Ala-Phe tripeptide, a proteosomal (chymotrypsin-like) activity measured by release of blocked Leu-Leu-Val-Tyr (SEQ ID NO:18) peptides, and an exceedingly labile activity by Gly-Phe, Gly-Ala, Phe-, Tyr- or Gly-Gly-Leu substrates. The latter activities were only measurable in viable, intact cells. Of further significance is that several fluorophores or proluminescent labels can be used to detect these activities, ultimately allowing for enhanced downstream multiplexing flexibility.

[2] = system: HL-60 or Jurkat; test: Protease release substrate selectivity, lysed (freeze fractured, sonicated, or detergent) cells; set-up: key: None denotes no statistical activity above control population.; (+) to (+++++) denotes the range of activity above control population from modest to robust; (+) to (+++++) denotes the range of activity above control population from modest to robust; (+) to (+++++) denotes the range of activity above control population from modest to robust; (+) to (+++++) denotes the range of activity above control population from modest to robust; (+) to (+++++) denotes the range of activity above control population from modest to robust; conditions: substrate cleavage activity above control in lysed cells; 15-30 minutes at 37° C.
From the text: as §1, §2, §3, §4

[3] = system: HL-60, SK-MEL-28, U937; test: Protease release assay inhibitor/adjuncts survey with Ala-Ala-Phe-AMC
From the text: (§5) Puromycin, E-64, Phenylmethanesulfonyl fluoride (PMSF), Adenosine 5′-triphosphate (ATP), N-(α-Rhamnopyranosyloxyhyrdoxyphosphinyl)-Leu-Trp disodium salt (Phosphoramidon), N-[(2S,3R)-3-Amino-2-hydroxy-4-phenylbutyryl-L-leucine hydrochloride (Bestatin), 1,10-Phenathroline, […], 4-(2-Aminoethyl)benzenesulfonyl fluoride (AEBSF), 1,4-Dithio-DL-threitol (DTT), Edetate disodium dihyrdrate (EDTA), Isovaleryl-L-valyl-L-valyl-[(3S,4S)-4-amino-3-hydroxy-6-methylheptanoyl]-L-alanyl[93S,4S]-4-amino-3-hydroxy-6-methylheptanoicacid (Pepstatin A), sodium chloride, Aprotinin, N-Acetyl-L-leucyl-L-leucyl-L-argininal hemisulfate salt (leupeptin) were all purchased from Sigma. Inhibitors were resuspended in DMSO to varying stock concentrations with a high target concentration of 200 μM or 200 μg/ml in Dulbecco's Phosphate Buffer Saline w/o Mg^++ or Ca^++ (DPBS) for addition to either lysates or viable cell populations. DTT, NaCl, EDTA, and ATP were also diluted in DPBS. All compounds were incubated with compromised or viable cells for a period of at least 30 minutes (most 60 minutes) at 37° C. prior to assessment of activity.
(§6) The protease retention assay inhibitor/adjuncts survey was conducted on sonicated, saponin-lysed, or viable HL-60 and/or U937 using Gly-Phe-AFC at 100 μM final concentration as described previously. The protease release assay inhibitor/adjuncts survey was conducted on sonicated, saponin-lysed, or viable HL-60, SK-MEL-28, and/or U937 using Ala-Ala-Phe-AMC or (Ala-Ala-Phe)2-Rhodamine 110.

[4] = system: HL-60 and/or U937; test: Protease retention assay inhibitor/adjuncts survey with Gly-Phe-AFC; conditions: for Comments: no inhibition/no effect to (concentration): highest concentration without effect on retention activity
From the text: as §5, §6

[5] = highest concentration without inhibition of release activity
[6] = on protease release activity, Ala-Ala-Phe-AMC, sonicated, saponin-lysed, or viable cells
[7] = on protease retention activity, Gly-Phe-AFC at 100 μM final, sonicated, saponin-lysed, or viable cells

Row | Structure (SMILES) | Retention [1] | Release [2] | also measured
1 | CC(N)C(=O)NC(C)C(=O)NC(Cc1ccccc1)C(=O)Nc1ccc2c(c1)Oc1cc(NC(=O)C(Cc3ccccc3)NC(=O)C(C)NC(=O)C(C)N)ccc1C21OC(=O)c2ccccc21 (stereo not drawn) [(Ala-Ala-Phe) 2 R110, (Ala-Ala-Phe)2-R110] | None | +++++ | –
2 | CC(=O)NC(C)C(=O)NC(C)C(=O)NC(Cc1ccc(O)cc1)C(=O)Nc1ccc2c(C)cc(=O)oc2c1 (stereo not drawn) [Ac-Ala-Ala-Tyr-AMC] (Ac-Ala-Ala-Tyr-{AMC}; configuration not given here) | None | None | –
3 | Cc1cc(=O)oc2cc(NC(=O)C(Cc3ccccc3)NC(=O)C(C)NC(=O)C(C)N)ccc12 (stereo not drawn) [Ala-Ala-Phe-AMC] (H-Ala-Ala-Phe-{AMC}; configuration not given here) | None | +++++ | –
4 | CC(N)C(=O)NC(C)C(=O)NC(Cc1ccccc1)C(=O)Nc1ccc2nc(C3=NC(C(=O)O)CS3)sc2c1 (stereo not drawn) [Ala-Ala-Phe-Aminoluc, Ala-Ala-Phe-aminoluciferin] | None | +++++ | –
5 | CC(C)C[C@H](NC(=O)[C@H]1O[C@@H]1C(=O)O)C(=O)NCCCCN=C(N)N [E-64] | – | – | Comments: no inhibition to (concentration) [3, 5]: to 100 uM; Effect [3, 6]: No inhib; Comments: no inhibition/no effect to (concentration) [4]: to 100 uM; Effect [4, 7]: No inhib
6 | O.O.O=C([O-])CN(CCN(CC(=O)[O-])CC(=O)O)CC(=O)O.[Na+].[Na+] [EDTA, Edetate disodium dihyrdrate] | – | – | Comments: no inhibition to (concentration) [3]: to 50 mM; Effect [3]: No inhib; Comments [4]: Also reduces; Effect [4]: Inhibition; Protease retention activity profile in the presence of inhibitors or adjuncts [4]: sensitivities
7 | Cc1cc(=O)oc2cc(NC(=O)[C@H](Cc3ccccc3)NC(=O)[C@H](C)NC(=O)[C@H](C)NC(=O)CCCC(=O)O)ccc12 [Gluty-Ala-Ala-Phe-AMC, Glutyl-Ala-Ala-Phe-AMC] (Glutaryl-Ala-Ala-Phe-{AMC}) | None | None | –
8 | NCC(=O)N[C@@H](Cc1ccccc1)C(=O)Nc1ccc2c(C(F)(F)F)cc(=O)oc2c1 [Gly-Phe-AFC] (H-Gly-Phe-{AFC}) | +++++ | None | –
9 | Cc1cc(=O)oc2cc(NC(=O)[C@H](Cc3ccccc3)NC(=O)CN)ccc12 [Gly-Phe-AMC, H-Gly-Phe-AMC] (H-Gly-Phe-{AMC}) | ++ | None | –
10 | Cc1cc(=O)oc2cc(NC(=O)[C@H](CCCCN)NC(=O)[C@H](CC(C)C)NC(=O)[C@@H](C)N)ccc12 [H-D-Ala-Leu-Lys-AMC] (H-[dA]-Leu-Lys-{AMC}) | None | None | –
11 | Cc1cc(=O)oc2cc(NC(=O)C(C)NC(=O)CN)ccc12 (stereo not drawn) [H-Gly-Ala-AMC] | ++ | None | –
12 | Cc1cc(=O)oc2cc(NC(=O)CNC(=O)CN)ccc12 [H-Gly-Gly-AMC] (H-Gly-Gly-{AMC}) | None | None | –
13 | Cc1cc(=O)oc2cc(NC(=O)[C@@H](N)Cc3ccccc3)ccc12 [H-Phe-AMC] | +++ | None | –
14 | Cc1cc(=O)oc2cc(NC(=O)[C@H](CCCN=C(N)N)NC(=O)[C@H](Cc3ccccc3)NC(=O)[C@@H]3CCCN3)ccc12 [H-Pro-Phe-Arg-AMC] (H-Pro-Phe-Arg-{AMC}) | None | None | –
15 | Cc1cc(=O)oc2cc(NC(=O)[C@@H](N)Cc3ccc(O)cc3)ccc12 [H-Tyr-AMC] | ++ | None | –
16 | O=S(=O)(F)Cc1ccccc1 [PMSF, Phenylmethanesulfonyl fluoride] | – | – | Comments ([3]; extent of the effect on release activity, in words): Strong; Effect [3, 6]: Inhibition; Comments: no inhibition/no effect to (concentration) [4]: to 100 uM; Effect [4, 7]: No inhib
17 | CC(C)C[C@H](NP(=O)(O)O[C@@H]1O[C@@H](C)[C@H](O)[C@@H](O)[C@H]1O)C(=O)N[C@@H](Cc1c[nH]c2ccccc12)C(=O)O [Phosphoramidon, N-(α-Rhamnopyranosyloxyhyrdoxyphosphinyl)-Leu-Trp disodium salt] | – | – | Comments: no inhibition to (concentration) [3, 5]: to 100 uM; Effect [3, 6]: No inhib; Comments: no inhibition/no effect to (concentration) [4]: to 100 uM; Effect [4, 7]: No inhib
18 | N[C@@H](CO)C(=O)N[C@@H](Cc1ccc(O)cc1)C(=O)Nc1ccc2c(C(F)(F)F)cc(=O)oc2c1 [Ser-Tyr-AFC] (H-Ser-Tyr-{AFC}) | None | None | –
19 | Cc1cc(=O)oc2cc(NC(=O)[C@H](Cc3ccccc3)NC(=O)[C@H](C)NC(=O)[C@H](C)NC(=O)CCC(=O)O)ccc12 [Suc-Ala-Ala-Phe-AMC] (Suc-Ala-Ala-Phe-{AMC}) | None | None | –
20 | Cc1cc(=O)oc2cc(NC(=O)[C@H](Cc3ccc(O)cc3)NC(=O)[C@@H](NC(=O)[C@H](CC(C)C)NC(=O)[C@H](CC(C)C)NC(=O)CCC(=O)O)C(C)C)ccc12 [Suc-Leu-Leu-Val-Tyr-AMC] (Suc-LLVY-{AMC}) | None | + | –
